One test deals with Jurkat T cells. Nature of the test: Cell cycle analysis by flow cytometry, Jurkat T cells. In kind it is cell-based, human. Here is the method:
FIG. 6. Cell cycle analysis. Asynchronous Jurkat, LNCaP, WI-38, and VA-13 cells are treated with 10 μM EGCG and harvested at the time points indicated. Cells are prepared and analyzed by flow cytometry as described in the The Materials and Methods section of Example 1. Growth arrest is determined by the increase in the percentage of G1 population.
FIG. 12. […] Jurkat T cells are treated with either 50 μg/ml of tannic acid or buffer (−) for up to 48 h. The harvested cells are fixed, resuspended in 1 ml of PBS containing 50 μg/ml of propidium iodide (PI), 100 U/ml of RNase A, and 1 mg/ml of glucose, and analyzed by flow cytometry. Percentages of cells containing G1 S, G2 and M DNA content are indicated. Percentages of the apoptotic cell population containing sub-G1 DNA content is also indicated. Note: tannic acid treatment results in ˜23% increase in G1 and ˜14% increase in apoptotic cell populations.
Cell cycle analysis—Cell cycle analysis based on DNA content is performed as follows. Cells are harvested, counted and washed twice with PBS. Cells (5×10^6 ) are then suspended in 0.5 ml PBS, pipetted and fixed in 5 ml of 70% ethanol for at least 2 h at −20° C. Cells are centrifuged, resuspended in 1 ml of propidium iodide staining solution (50 μg propidium iodide, 100 units RNase A and 1 mg glucose per ml PBS) and incubated at room temperature for 30 min. The cells are then analyzed with FACScan (Becton Dickinson Immunocytometry, CA.), ModFit LT and WinMDI V.2.8 cell cycle analysis software (Verity Software, Topsham, Me.). The cell cycle distribution is shown as the percentage of cells containing G1, S, G2, and M DNA judged by propidium iodide staining.
On the technique in general: In flow cytometry, cells or beads pass a laser one at a time.

Test [1] addresses T1, proteasome chymotrypsin-like activity in living Jurkat cells (Homo sapiens, UniProt P28074).
T1 construct: endogenous in cells; host or cells: Jurkat T cells (whole cell extract or intact cells)
In words: Proteasome chymotrypsin-like activity in living Jurkat T cells. In kind it is cell-based. The procedure: FIG. 10. Inhibition of the chymotrypsin-like activity by tannic acid in intact Jurkat T cells. Intact Jurkat T cells (1×10^5 cells/ml/well) are cultured in 24-well plates. These cells are first incubated for 12 h with various concentrations of tannic acid as indicated, followed by an additional 2 h-incubation with a fluorogenic peptide substrate, Suc-Leu-Leu-Val-Tyr-AMC for the chymotrypsin-like activity. Then, cell medium (200 μl per sample) is collected and used for measurement of free AMCs.
Inhibition of the proteasome activity in living cells by tea polyphenols—To measure inhibition of the chymotrypsin-like activity in living tumor cells, Jurkat T (1×10^5 cells/ml/well), MCF7 or PC-3 cells (1×10^4 cells/ml/well) are cultured in 24-well plates. These cells are first incubated for 12 h with various concentrations of EGCG, EGC, β-lactone or LLnL, followed by an additional 2 h-incubation with fluorogenic peptide substrates, Suc-Leu-Leu-Val-Tyr-AMC for the chymotrypsin-like activity and Z-Gly-Gly-Arg-AMC for the trypsin-like activity. After that, cell medium (200 μl per sample) is collected and used for measurement of free AMCs.

The target of a further test is T2, purified calpain I (Homo sapiens, UniProt P07384).
T2 construct: 3 μg purified calpain I (Human Erythrocytes, Calbiochem) is incubated; purchased Calbiochem; host or cells: human erythrocytes (tissue-purified)
T2 sequence (P07384 1-714): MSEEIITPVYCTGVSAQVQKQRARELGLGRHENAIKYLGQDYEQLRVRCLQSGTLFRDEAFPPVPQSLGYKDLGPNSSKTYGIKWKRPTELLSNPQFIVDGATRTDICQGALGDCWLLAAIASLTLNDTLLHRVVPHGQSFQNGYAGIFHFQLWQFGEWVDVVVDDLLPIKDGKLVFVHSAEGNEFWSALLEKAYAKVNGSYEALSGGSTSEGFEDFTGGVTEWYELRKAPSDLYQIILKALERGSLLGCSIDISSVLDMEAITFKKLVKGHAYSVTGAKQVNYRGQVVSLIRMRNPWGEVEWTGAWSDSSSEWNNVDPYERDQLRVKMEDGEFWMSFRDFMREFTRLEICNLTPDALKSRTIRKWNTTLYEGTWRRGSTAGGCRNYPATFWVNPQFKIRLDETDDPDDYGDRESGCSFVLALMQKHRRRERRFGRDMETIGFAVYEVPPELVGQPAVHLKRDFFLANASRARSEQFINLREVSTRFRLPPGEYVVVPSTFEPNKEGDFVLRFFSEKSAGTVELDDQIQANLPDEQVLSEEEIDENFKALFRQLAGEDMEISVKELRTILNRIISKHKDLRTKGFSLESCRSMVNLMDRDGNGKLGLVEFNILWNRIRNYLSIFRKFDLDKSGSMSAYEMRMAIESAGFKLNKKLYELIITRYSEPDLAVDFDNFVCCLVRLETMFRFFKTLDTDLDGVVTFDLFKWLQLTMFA
T2 sequence (P04632 1-268 partner): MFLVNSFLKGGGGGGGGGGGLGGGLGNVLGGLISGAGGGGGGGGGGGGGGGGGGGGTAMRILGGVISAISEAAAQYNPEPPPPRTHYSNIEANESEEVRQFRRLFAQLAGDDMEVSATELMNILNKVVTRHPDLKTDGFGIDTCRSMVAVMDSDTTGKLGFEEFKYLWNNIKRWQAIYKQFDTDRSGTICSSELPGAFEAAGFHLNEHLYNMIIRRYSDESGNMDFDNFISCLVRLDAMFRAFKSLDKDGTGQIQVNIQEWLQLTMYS
Nature of the test: Calpain I activity assay. The format is biochemical. To be noted: for inhibition of purified calpain I activity (in words): 10 μM, FIG. 16A. The procedure: FIG. 8. […] A). […] Initially, 0.5 μg of purified 20S proteasome is incubated with 20 μM of a fluorogenic peptide substrate, Suc-Leu-Leu-Val-Tyr-AMC, for 30 min at 37° C. in 100 μl of assay buffer (20 mM Tris-HCl, pH 8.0) with various concentrations of tannic acid. After incubation, the reaction mixture is diluted to 200 μl with the assay buffer, followed by measurement of the hydrolyzed 7-amido-4-methyl-coumarin (AMC) groups using a fluorometer with an excitation filter of 380 nm and an emission filter of 460 nm. B). […] Tannic acid (0.3 μg/ml) and Glucose (180 μg/ml) are used in the proteasome activity assay as described above. C). […] Purified calpain I (3 μg) protein is incubated with 40 μM of a fluorogenic peptide substrate, Suc-Leu-Tyr-AMC, for 30 min at 37° C. in 100 μl of assay buffer (50 mM Tris-HCl, pH 7.5, containing 50 mM NaCl, 1 mM EDTA, 1 mM EGTA, 5 mM β-Mercaptoethanol, 5 mM CaCl2, and 0.1% CHAPS) in the absence (control) or presence of 5 μg/ml of tannic acid or 0.18 μg/ml of calpeptin (calpain inhibitor).

The mark [2] stands for this setting: tannic acid 50 μg/ml, up to 48 h.

A word on the IC50: it is the concentration that inhibits the measured activity by half. Lower therefore signals greater potency.

Regarding `O=C(OC[C@H]1O[C@@H](OC(=O)c2cc(O)c(O)c(OC(=O)c3cc(O)c(O)c(O)c3)c2)[C@H](OC(=O)c2cc(O)c(O)c(OC(=O)c3cc(O)c(O)c(O)c3)c2)[C@@H](OC(=O)c2cc(O)c(O)c(OC(=O)c3cc(O)c(O)c(O)c3)c2)[C@@H]1OC(=O)c1cc(O)c(O)c(OC(=O)c2cc(O)c(O)c(O)c2)c1)c1cc(O)c(O)c(OC(=O)c2cc(O)c(O)c(O)c2)c1` [tannic acid], the “G1 arrest and apoptosis (in words)” value in the test on Jurkat T cells (tannic acid) is “induces G1 arrest and apoptosis”. Moreover, in the test with Jurkat T cells (setting [2]), the “increase in G1 cell population” value was approximately 23% and the “increase in apoptotic cell population (sub-G1)” value is on record as approximately 14%. The “inhibition of chymotrypsin-like activity in living/intact Jurkat cells (in words)” value in test [1] is listed as “inhibition”. In addition, the “inhibition of calpain activity (in words)” value on purified calpain I (tannic acid 5 μg/ml) is recorded as “does not inhibit”.
Take `Oc1cc(O)c2c(c1)O[C@H](c1cc(O)c(O)c(O)c1)[C@H](O)C2` [EGC, (−)-epigallocatechin]: the “inhibition of chymotrypsin-like activity in living/intact Jurkat cells (in words)” value in test [1] is given as “much less effect”. Moreover, on purified calpain I, the “inhibition of purified calpain I activity (in words)” value was “Neither EGCG nor EGC at 10 μM inhibits”.
Regarding `O=C(O[C@@H]1Cc2c(O)cc(O)cc2O[C@@H]1c1cc(O)c(O)c(O)c1)c1cc(O)c(O)c(O)c1` [EGCG, (−)-epigallocatechin-3-gallate], the “increase in G1 population” value in the test with Jurkat T cells (10 μM, 24 h) is listed as 10%. Besides, the “inhibition of chymotrypsin-like activity in living/intact Jurkat cells (in words)” value in test [1] is “inhibitable”. For the same compound, in test [1] (10 μM, living Jurkat cells), the “inhibition of chymotrypsin-like activity” value is reported as 24%. Further, it took 18 µM to reach half-maximal inhibition in test [1] (12 h preincubation) (IC50). In addition, the “inhibition of purified calpain I activity (in words)” value against purified calpain I was “Neither EGCG nor EGC at 10 μM inhibits”. The “inhibition of purified calpain activity (in words)” value at purified calpain I (FIG. 3B: EGCG 10 μM, calpeptin 1 μM) is given as “but not EGCG, is able to inhibit”.

The values are drawn from patent publication US6713506B2, “Tea polyphenol esters and analogs thereof for cancer prevention and treatment” (University of South Florida, priority 2000, dated 2004).
